Data published in patent US7709471B2, “Compounds” (AstraZeneca AB, priority 2006, dated 2010).

System: human colon tumour cell line HT29
Assay: Cellular Assay (phosphohistone H3 Ser10 mitotic marker, HT29)
Format: cell-based
Conditions: HT-29, 24 h, HT29 cells, read-out: IC50 (cellular assay, phosphohistone H3)
Experimental: Chromosome condensation in mitosis is accompanied by phosphorylation of histone H3 on serine 10.
After 24 hours, cells were fixed in 3.7% (v/v) formaldehyde then permeabilised and blocked for 10 minutes in 100 μl 0.5% (v/v) Triton X-100, 1% (w/v) bovine serum albumin (BSA) in phosphate buffered saline (PBS). […] The raw assay data were analysed by non-linear regression analysis and used to determine an IC50 value for each compound.

Row | Structure (SMILES) | IC50
1 | CN1CCC(NC(=O)c2cc(F)c(Nc3ncc4c(n3)N(C3CCCCC3)CCC(=O)N4C)cc2F)CC1 [Example 412, 4-[(2-cyclohexyl-6-methyl-5-oxo-2,6,9,11-tetrazabicyclo[5.4.0]undeca-7,9,11-trien-10-yl)amino]-2,5-difluoro-N-(1-methyl-4-piperidyl)benzamide] | < 300 nM
2 | CN1C(=O)C2(CC2)CN(C2CCCCC2)c2nc(Nc3ccc(C(=O)NC4C[C@H]5CCC[C@@H](C4)N5C)cc3F)ncc21 (stereo partly drawn) [Example 435, 4-(9′-cyclohexyl-5′-methyl-6′-oxo-5′,6′,8′,9′-tetrahydrospiro[cyclopropane-1,7′-pyrimido[5,4-b][1,4]diazepine]-2′-ylamino)-3-fluoro-N-[(1S,5R)-9-methyl-9-azabicyclo[3.3.1]non-7-yl]benzamide] | < 300 nM
3 | CCN1CCC(NC(=O)c2cc(OC)c(Nc3ncc4c(n3)N(C(C)C)CC(CC)(CC)C(=O)N4C)cc2F)CC1 [Example 308, 4-[(4,4-diethyl-6-methyl-5-oxo-2-propan-2-yl-2,6,9,11-tetrazabicyclo[5.4.0]undeca-7,9,11-trien-10-yl)amino]-N-(1-ethyl-4-piperidyl)-2-fluoro-5-methoxy-benzamide] | < 300 nM
4 | COc1cc(C(=O)NC2CCC(N(C)C)CC2)c(F)cc1Nc1ncc2c(n1)N(C1CCCC1)CC(C)(C)C(=O)N2C (stereo not shown) [Example 372, 4-[(2-cyclopentyl-4,4,6-trimethyl-5-oxo-2,6,9,11-tetrazabicyclo[5.4.0]undeca-7,9,11-trien-10-yl)amino]-N-(4-dimethylaminocyclohexyl)-2-fluoro-5-methoxy-benzamide] | < 300 nM
5 | COc1cc(C(=O)N[C@@H]2CCN(C)C2)ccc1Nc1ncc2c(n1)N(C(C)C)CC(C)(C)C(=O)N2C [Example 299, 3-methoxy-N-[(3R)-1-methylpyrrolidin-3-yl]-4-[(4,4,6-trimethyl-5-oxo-2-propan-2-yl-2,6,9,11-tetrazabicyclo[5.4.0]undeca-7,9,11-trien-10-yl)amino]benzamide] | < 300 nM
6 | CN1C(=O)C2(CC2)CN(C2CCCC2)c2nc(Nc3ccc(C(=O)NCCN4CCCC4)cc3Cl)ncc21 [Example 391, 3-chloro-4-(9′-cyclopentyl-5′-methyl-6′-oxo-5′,6′,8′,9′-tetrahydrospiro[cyclopropane-1,7′-pyrimido[5,4-b][1,4]diazepine]-2′-ylamino)-N-(2-pyrrolidin-1-ylethyl)benzamide] | < 300 nM
7 | CCN1CCC(NC(=O)c2ccc(Nc3ncc4c(n3)N(C3CCCC3)CC3(CC3)C(=O)N4C)c(F)c2)CC1 [Example 406, 4-(9′-cyclopentyl-5′-methyl-6′-oxo-5′,6′,8′,9′-tetrahydrospiro[cyclopropane-1,7′-pyrimido[5,4-b][1,4]diazepine]-2′-ylamino)-N-(1-ethyl-4-piperidyl)-3-fluoro-benzamide] | < 300 nM
8 | CN1CC[C@@H](NC(=O)c2cc(F)c(Nc3ncc4c(n3)N(C3CCCCC3)CCC(=O)N4C)cc2F)C1 [Example 414, 4-[(2-cyclohexyl-6-methyl-5-oxo-2,6,9,11-tetrazabicyclo[5.4.0]undeca-7,9,11-trien-10-yl)amino]-2,5-difluoro-N-[(3R)-1-methylpyrrolidin-3-yl]benzamide] | < 300 nM
9 | CCOc1cc(C(=O)N[C@@H]2CCN(C)C2)ccc1Nc1ncc2c(n1)N(C(C)C)CCC(=O)N2C [Example 284, 3-ethoxy-4-[(6-methyl-5-oxo-2-propan-2-yl-2,6,9,11-tetrazabicyclo[5.4.0]undeca-7,9,11-trien-10-yl)amino]-N-[(3R)-1-methylpyrrolidin-3-yl]benzamide] | < 30000 nM
10 | CCOc1cc(C(=O)NC2CCC(N(C)C)CC2)ccc1Nc1ncc2c(n1)N(C(C)C)CC(C)(C)C(=O)N2C (stereo not shown) [Example 294, N-(4-dimethylaminocyclohexyl)-3-ethoxy-4-[(4,4,6-trimethyl-5-oxo-2-propan-2-yl-2,6,9,11-tetrazabicyclo[5.4.0]undeca-7,9,11-trien-10-yl)amino]benzamide] | < 1000 nM
11 | COc1cc(C(=O)NC2C[C@H]3CCC[C@@H](C2)N3C)c(F)cc1Nc1ncc2c(n1)N(C1CCCCC1)CC1(CC1)C(=O)N2C (stereo partly drawn) [Example 442, 4-(9′-cyclohexyl-5′-methyl-6′-oxo-5′,6′,8′,9′-tetrahydrospiro[cyclopropane-1,7′-pyrimido[5,4-b][1,4]diazepine]-2′-ylamino)-2-fluoro-5-methoxy-N-[(1S,5R)-9-methyl-9-azabicyclo[3.3.1]non-3-yl]benzamide] | < 300 nM
12 | CN1C(=O)C2(CC2)CN(C2CCCC2)c2nc(Nc3ccc(C(=O)NC4C[C@H]5CCC[C@@H](C4)N5C)cc3Cl)ncc21 (stereo partly drawn) [Example 402, 3-chloro-4-(9′-cyclopentyl-5′-methyl-6′-oxo-5′,6′,8′,9′-tetrahydrospiro[cyclopropane-1,7′-pyrimido[5,4-b][1,4]diazepine]-2′-ylamino)-N-[(1S,5R)-9-methyl-9-azabicyclo[3.3.1]non-7-yl]benzamide] | < 300 nM
13 | CCC1(CC)CN(C(C)C)c2nc(Nc3ccc(C(=O)NC4CCN(C)CC4)cc3OC)ncc2N(C)C1=O [Example 304, 4-[(4,4-diethyl-6-methyl-5-oxo-2-propan-2-yl-2,6,9,11-tetrazabicyclo[5.4.0]undeca-7,9,11-trien-10-yl)amino]-3-methoxy-N-(1-methyl-4-piperidyl)benzamide] | < 300 nM
14 | CN1C(=O)C(C)(C)CN(C2CCCC2)c2nc(Nc3cc(F)c(C(=O)NC4CCC(N(C)C)CC4)cc3Cl)ncc21 (stereo not shown) [Example 366, 5-chloro-4-[(2-cyclopentyl-4,4,6-trimethyl-5-oxo-2,6,9,11-tetrazabicyclo[5.4.0]undeca-7,9,11-trien-10-yl)amino]-N-(4-dimethylaminocyclohexyl)-2-fluoro-benzamide] | < 300 nM
15 | COc1cc(C(=O)NC2C[C@H]3CCC[C@@H](C2)N3C)ccc1Nc1ncc2c(n1)N(C1CCCC1)CC(C)(C)C(=O)N2 (stereo partly drawn) [Example 278, 4-[(2-cyclopentyl-4,4-dimethyl-5-oxo-2,6,9,11-tetrazabicyclo[5.4.0]undeca-7,9,11-trien-10-yl)amino]-3-methoxy-N-[(1S,5R)-9-methyl-9-azabicyclo[3.3.1]non-7-yl]benzamide] | < 1000 nM
16 | COc1cc(C(=O)N[C@@H]2CCN(C)C2)c(F)cc1Nc1ncc2c(n1)N(C1CCCCC1)CCC(=O)N2C [Example 420, 4-[(2-cyclohexyl-6-methyl-5-oxo-2,6,9,11-tetrazabicyclo[5.4.0]undeca-7,9,11-trien-10-yl)amino]-2-fluoro-5-methoxy-N-[(3R)-1-methylpyrrolidin-3-yl]benzamide] | < 300 nM
17 | CN1C(=O)CCN(C2CCCCC2)c2nc(Nc3cc(F)c(C(=O)NCC4(CN5CCCC5)CC4)cc3F)ncc21 [Example 413, 4-[(2-cyclohexyl-6-methyl-5-oxo-2,6,9,11-tetrazabicyclo[5.4.0]undeca-7,9,11-trien-10-yl)amino]-2,5-difluoro-N-[[1-(pyrrolidin-1-ylmethyl)cyclopropyl]methyl]benzamide] | < 1000 nM
18 | COc1cc(C(=O)NC2CCC(N3CCCC3)CC2)ccc1Nc1ncc2c(n1)N(C1CCCC1)CC(C)(C)C(=O)N2C (stereo not shown) [Example 360, 4-[(2-cyclopentyl-4,4,6-trimethyl-5-oxo-2,6,9,11-tetrazabicyclo[5.4.0]undeca-7,9,11-trien-10-yl)amino]-3-methoxy-N-(4-pyrrolidin-1-ylcyclohexyl)benzamide] | < 300 nM
19 | COc1cc(C(=O)NCC(C)(C)CN2CCCC2)ccc1Nc1ncc2c(n1)N(C1CCCCC1)CC1(CC1)C(=O)N2C [Example 440, 4-(9′-cyclohexyl-5′-methyl-6′-oxo-5′,6′,8′,9′-tetrahydrospiro[cyclopropane-1,7′-pyrimido[5,4-b][1,4]diazepine]-2′-ylamino)-N-(2,2-dimethyl-3-pyrrolidin-1-yl-propyl)-3-methoxy-benzamide] | < 300 nM
20 | CN1CCC(NC(=O)c2cc(F)c(Nc3ncc4c(n3)N(C3CCCC3)CC(C)(C)C(=O)N4C)cc2F)CC1 [Example 356, 4-[(2-cyclopentyl-4,4,6-trimethyl-5-oxo-2,6,9,11-tetrazabicyclo[5.4.0]undeca-7,9,11-trien-10-yl)amino]-2,5-difluoro-N-(1-methyl-4-piperidyl)benzamide] | < 300 nM
21 | COc1cc(C(=O)N[C@@H]2CCN(C)C2)c(F)cc1Nc1ncc2c(n1)N(C1CCCCC1)CC1(CC1)C(=O)N2C [Example 438, 4-(9′-cyclohexyl-5′-methyl-6′-oxo-5′,6′,8′,9′-tetrahydrospiro[cyclopropane-1,7′-pyrimido[5,4-b][1,4]diazepine]-2′-ylamino)-2-fluoro-5-methoxy-N-[(3R)-1-methylpyrrolidin-3-yl]benzamide] | < 300 nM
22 | CN1CCC(NC(=O)c2cc(F)c(Nc3ncc4c(n3)N(C3CCCCC3)CCC(=O)N4C)cc2Cl)CC1 [Example 411, 2-chloro-4-[(2-cyclohexyl-6-methyl-5-oxo-2,6,9,11-tetrazabicyclo[5.4.0]undeca-7,9,11-trien-10-yl)amino]-5-fluoro-N-(1-methyl-4-piperidyl)benzamide] | < 1000 nM
23 | CN1C(=O)C(C)(C)CN(C2CCCC2)c2nc(Nc3ccc(C(=O)NCC(C)(C)CN4CCCC4)cc3Cl)ncc21 [Example 367, 3-chloro-4-[(2-cyclopentyl-4,4,6-trimethyl-5-oxo-2,6,9,11-tetrazabicyclo[5.4.0]undeca-7,9,11-trien-10-yl)amino]-N-(2,2-dimethyl-3-pyrrolidin-1-yl-propyl)benzamide] | < 300 nM
24 | CCN1CCC(NC(=O)c2ccc(Nc3ncc4c(n3)N(C(C)C)CC(C)(C)C(=O)N4C)c(OC)c2)CC1 [Example 300, N-(1-ethyl-4-piperidyl)-3-methoxy-4-[(4,4,6-trimethyl-5-oxo-2-propan-2-yl-2,6,9,11-tetrazabicyclo[5.4.0]undeca-7,9,11-trien-10-yl)amino]benzamide] | < 300 nM
25 | COc1cc(C(=O)NC2C[C@H]3CCC[C@@H](C2)N3C)c(F)cc1Nc1ncc2c(n1)N(C1CCCC1)CC1(CC1)C(=O)N2C (stereo partly drawn) [Example 404, 4-(9′-cyclopentyl-5′-methyl-6′-oxo-5′,6′,8′,9′-tetrahydrospiro[cyclopropane-1,7′-pyrimido[5,4-b][1,4]diazepine]-2′-ylamino)-2-fluoro-5-methoxy-N-[(1S,5R)-9-methyl-9-azabicyclo[3.3.1]non-3-yl]benzamide] | < 300 nM
